ChEMBL document CHEMBL5537186 (J Med Chem, 2024)
Converted amounts (≈) assume the structure as drawn.

What was measured:
[1] = Metabolic stability in human hepatocytes assessed as compound remaining measured after 60 mins; type: ADME, cell-based, Hepatocyte; conditions: read-out: Stability
[2] = Kinetic aqueous solubility of compound at pH 7.4; type: physicochemical; conditions: read-out: Kinetic_solubility
[3] = Lipophilicity, logD of compound at pH 7.4; type: physicochemical; conditions: buffer
[4] = Kinetic aqueous solubility of compound at pH 4.5; type: physicochemical; conditions: read-out: Kinetic_solubility

Row | Compound | remaining at 1 h [1] | solubility kinetic [2] | logD [3] | solubility kinetic [4]
1 | Cc1ccc(NC(=O)N2CCO[C@@H](C(F)(F)F)C2)cc1-c1cc(OCCO)nc(N2CCOCC2)c1 | 54% | 56 µM (≈ 28.6 µg/mL) |  | 
2 | Cc1ccc(NC(=O)N2CCO[C@H](C(F)(F)F)C2)cc1-c1cc(OCCO)nc(N2CCOCC2)c1 | 93% | 62 µM (≈ 31.7 µg/mL) | 3.46 | 
3 | Cc1ccc(NC(=O)N2CC[C@@H](CC(F)(F)F)C2)cc1-c1cc(OCCO)nc(N2CCOCC2)c1 | 19% | 39 µM (≈ 19.8 µg/mL) | 3.73 | 35 µM (≈ 17.8 µg/mL)

Results, then the molecule that gave them:

Row | remaining at 1 h [1] | solubility kinetic [2] | logD [3] | solubility kinetic [4] | Compound
4 | 6% | 83 µM (≈ 41 µg/mL) | 3.51 |  | Cc1ccc(NC(=O)N2CC[C@H](C(F)(F)F)C2)cc1-c1cc(OCCO)nc(N2CCOCC2)c1
5 | 7% | 83 µM (≈ 41 µg/mL) | 3.49 |  | Cc1ccc(NC(=O)N2CC[C@@H](C(F)(F)F)C2)cc1-c1cc(OCCO)nc(N2CCOCC2)c1
